# Measurements from patent US9700525B2, “Continuous local slow-release of therapeutics for head and neck problems and upper aerodigestive disorders” (Board of Supervisors of Louisiana State University and …, priority 2008, dated 2017).
# Experiments:
# mTOR pathway markers = details: tumors and PBMCs of HNSCC patients; cited from earlier work
# Akt/mTOR pathway = assay: Model of minimal residual disease; assay type: in vivo
# [1] = tested on: NFκB and Akt/mTOR pathways; assay: Modulation of NFκB and Akt/mTOR pathways in cell lines (western blot); assay type: cell-based
# [2] = tested on: normal fibroblast cell line CCL110; assay: Effect on proliferation of normal fibroblast cell line; assay type: cell-based
# DMBA-induced oral tumors = details: 10 μmol topically 3 times/week for 24 weeks; cited from earlier work
# [3] = following oral administration; cited from earlier work
# TPA-induced tumors = details: topical application of 10 μmol twice weekly; cited from earlier work
# HNSCC cell lines = assay: Inhibition of cell proliferation in HNSCC cell lines; assay type: cell-based
# From the text: While curcumin can be used to treat these cancers, other compounds that act on these pathways may also be useful in treating these cancers and it should be readily recognized that such compounds could also be delivered by including in the formulations described herein.
# [4] = tested on: prostate cancer xenograft; details: p.o. gavage 5 mg/day, 5 days/week for 4 weeks; cited from earlier work
# SCC40 xenografts = assay: Akt/mTOR pathway markers in SCC40 xenografts of treated mice; assay type: in vivo; details: mice with SCC40 xenografts treated with curcumin
# tumor cells = assay: Chemoprevention model: pre-treatment before tumor cell injection, tumor volumes; assay type: in vivo, Balb/c nu/nu mice; details: pre-treated 4 days prior to injecting tumor cells
# Description: Balb/c nu/nu mice were randomized into treatment groups. […] Tumors were measured over approximately three weeks. […] ANOVA analysis. […] This also points to its role as a chemopreventive agent rather than a therapeutic agent.
smiles,measurement,setting,value
"CO[C@H]1C[C@@H]2CC[C@@H](C)[C@@](O)(O2)C(=O)C(=O)N2CCCC[C@H]2C(=O)O[C@H]([C@H](C)C[C@@H]2CC[C@@H](OC(=O)C(C)(CO)CO)[C@H](OC)C2)CC(=O)[C@H](C)/C=C(\C)[C@@H](O)[C@@H](OC)C(=O)[C@H](C)C[C@H](C)/C=C/C=C/C=C/1C [CCI-779, temsirolimus]",modulation of mTOR pathway markers,mTOR pathway markers,modulation of these markers
same,survival,Akt/mTOR pathway,improve survival
same,tumor formation,Akt/mTOR pathway,inhibit tumor formation
COc1cc(/C=C/C(=O)CC(=O)/C=C/c2ccc(O)c(OC)c2)ccc1O [curcumin],change in pNFκB,"[1]; PCI15a cells, 10 μM, 24 and 48 hours",no change
same,change in pAkt,"[1]; PCI15a cells, 10 μM, 48 hours",down-regulated
same,change in pS6 downstream of mTOR,"[1]; PCI15a cells, 10 μM, 48 hours",down-regulated
same,change in the Akt/mTOR pathway,"[1]; SCC40 cells, 10 μM",no change
same,change in pNFκB,"[1]; SCC40 cells, 10 μM, 48 hours",down-regulation
same,modulation of the Akt/mTOR pathway,"[1]; SCC066 cells, 10 μM",did not show any modulation
same,change in pNFκB or Akt/mTOR,"[1]; normal fibroblast cell line CCL110, 10 μM",no decrease
same,dose required to see effects,[2],20 to 40 µM
same,reduction of the number of DMBA-induced oral tumors,DMBA-induced oral tumors,~40%
same,bioavailability,[3],low bioavailability
same,inhibition of the number of tumors per mouse,TPA-induced tumors,98%
same,growth inhibitory effect,HNSCC cell lines; all 10 HNSCC cell lines tested to date,growth inhibitory effects
same,growth inhibitory effect,"HNSCC cell lines; three HNSCC cell lines, 10 μM, 48 hours",significant growth inhibitory effects
same,concentration giving consistent inhibition of cell proliferation,"HNSCC cell lines; variety of HNSCC cell lines, in vitro",less than 10 μM
same,inhibition of growth of prostate cancer xenograft,[4],~50%
same,change in pAkt,SCC40 xenografts,significant decrease
same,change in pS6,SCC40 xenografts,significant decrease
same,difference in tumor volumes vs control (vehicle treated),tumor cells; 10 mg,no significant difference
same,difference in tumor volumes vs control (vehicle treated),"tumor cells; 15 mg, about three weeks",statistically significant difference
